Test results published in ChEMBL document CHEMBL5724806, “Unraveling interindividual differences and functional consequences of gut microbial metabolism of immunosuppressants” (2024).

What was measured:
Assay type in all cases: ADME
[1] = (§1) The drug is tested on Bifidobacterium adolescentis strain: DSM20083 for biotransformation under anaerobic condition. The drug concentrations were measured over 6 timepoints collected between 0 and 12 hours of incubation by liquid-chromatography-coupled mass spectrometry (LC–MS); parameters: dose 5 uM, timepoint 0, 1.5, 3, 6, 9, 12 hours; settings: 5 µM
[2] = The drug is tested on Capnocytophaga ochracea strain: DSM7271 for biotransformation under anaerobic condition. The drug concentrations were measured over 6 timepoints collected between 0 and 12 hours of incubation by liquid-chromatography-coupled mass spectrometry (LC–MS); parameters: dose 5 uM, timepoint 0, 1.5, 3, 6, 9, 12 hours; settings: 5 µM
[3] = The drug is tested on Faecalibacterium prausnitzii strain: DSM17677 for biotransformation under anaerobic condition. The drug concentrations were measured over 6 timepoints collected between 0 and 12 hours of incubation by liquid-chromatography-coupled mass spectrometry (LC–MS); parameters: dose 5 uM, timepoint 0, 1.5, 3, 6, 9, 12 hours; settings: faecalibacterium duncaniae, 5 µM
[4] = The drug is tested on Gemella morbillorum strain: DSM20572 for biotransformation under anaerobic condition. The drug concentrations were measured over 6 timepoints collected between 0 and 12 hours of incubation by liquid-chromatography-coupled mass spectrometry (LC–MS); parameters: dose 5 uM, timepoint 0, 1.5, 3, 6, 9, 12 hours; settings: 5 µM
[5] = The drug is tested on Lactobacillus gasseri strain: DSM20243 for biotransformation under anaerobic condition. The drug concentrations were measured over 6 timepoints collected between 0 and 12 hours of incubation by liquid-chromatography-coupled mass spectrometry (LC–MS); parameters: dose 5 uM, timepoint 0, 1.5, 3, 6, 9, 12 hours; settings: 5 µM
[6] = The drug is tested on Lactobacillus paracasei strain: ATCC27092 for biotransformation under anaerobic condition. The drug concentrations were measured over 6 timepoints collected between 0 and 12 hours of incubation by liquid-chromatography-coupled mass spectrometry (LC–MS); parameters: dose 5 uM, timepoint 0, 1.5, 3, 6, 9, 12 hours; settings: lacticaseibacillus paracasei, 5 µM
[7] = The drug is tested on Lactobacillus reuteri strain: DSM20016 for biotransformation under anaerobic condition. The drug concentrations were measured over 6 timepoints collected between 0 and 12 hours of incubation by liquid-chromatography-coupled mass spectrometry (LC–MS); parameters: dose 5 uM, timepoint 0, 1.5, 3, 6, 9, 12 hours; settings: limosilactobacillus reuteri, 5 µM
[8] = The drug is tested on Streptococcus salivarius strain: DSM20560 for biotransformation under anaerobic condition. The drug concentrations were measured over 6 timepoints collected between 0 and 12 hours of incubation by liquid-chromatography-coupled mass spectrometry (LC–MS); parameters: dose 5 uM, timepoint 0, 1.5, 3, 6, 9, 12 hours; settings: 5 µM
[9] = The drug is tested on Streptococcus sanguinis strain: DSM20567 for biotransformation under anaerobic condition. The drug concentrations were measured over 6 timepoints collected between 0 and 12 hours of incubation by liquid-chromatography-coupled mass spectrometry (LC–MS); parameters: dose 5 uM, timepoint 0, 1.5, 3, 6, 9, 12 hours; settings: 5 µM
[10] = (§2) The drug is tested on Actinomyces graevenitzii strain: DSM15540 for biotransformation under microaerobic condition. The drug concentrations were measured over 6 timepoints collected between 0 and 12 hours of incubation by liquid-chromatography-coupled mass spectrometry (LC–MS); parameters: dose 5 uM, timepoint 0, 1.5, 3, 6, 9, 12 hours; settings: 5 µM
[11] = The drug is tested on Actinomyces naeslundi strain: DSM43013 for biotransformation under microaerobic condition. The drug concentrations were measured over 6 timepoints collected between 0 and 12 hours of incubation by liquid-chromatography-coupled mass spectrometry (LC–MS); parameters: dose 5 uM, timepoint 0, 1.5, 3, 6, 9, 12 hours; settings: actinomyces naeslundii, 5 µM
[12] = The drug is tested on Lactobacillus paracasei strain: ATCC27092 for biotransformation under microaerobic condition. The drug concentrations were measured over 6 timepoints collected between 0 and 12 hours of incubation by liquid-chromatography-coupled mass spectrometry (LC–MS); parameters: dose 5 uM, timepoint 0, 1.5, 3, 6, 9, 12 hours; settings: lacticaseibacillus paracasei, 5 µM
[13] = The drug is tested on Lactobacillus reuteri strain: DSM20016 for biotransformation under microaerobic condition. The drug concentrations were measured over 6 timepoints collected between 0 and 12 hours of incubation by liquid-chromatography-coupled mass spectrometry (LC–MS); parameters: dose 5 uM, timepoint 0, 1.5, 3, 6, 9, 12 hours; settings: limosilactobacillus reuteri, 5 µM
[14] = The drug is tested on Streptococcus anginosus strain: DSM20563 for biotransformation under microaerobic condition. The drug concentrations were measured over 6 timepoints collected between 0 and 12 hours of incubation by liquid-chromatography-coupled mass spectrometry (LC–MS); parameters: dose 5 uM, timepoint 0, 1.5, 3, 6, 9, 12 hours; settings: 5 µM
[15] = The drug is tested on Streptococcus mitis strain: DSM12643 for biotransformation under microaerobic condition. The drug concentrations were measured over 6 timepoints collected between 0 and 12 hours of incubation by liquid-chromatography-coupled mass spectrometry (LC–MS); parameters: dose 5 uM, timepoint 0, 1.5, 3, 6, 9, 12 hours; settings: 5 µM
[16] = The drug is tested on Escherichia coli strain: DSM27469 for biotransformation under microaerobic condition. The drug concentrations were measured over 6 timepoints collected between 0 and 12 hours of incubation by liquid-chromatography-coupled mass spectrometry (LC–MS); parameters: dose 5 uM, timepoint 0, 1.5, 3, 6, 9, 12 hours; settings: 5 µM
[17] = as §1, with “the gut metagenome community of A-01 with ENA study accession number: PRJEB31790” for “Bifidobacterium adolescentis strain: DSM20083”, “7” for “6”; parameters: dose 5 uM, timepoint 0, 0.75, 1.5, 3, 6, 9, 12 hours; settings: 5 µM
[18] = as §1, with “the gut metagenome community of A-02 with ENA study accession number: PRJEB31790” for “Bifidobacterium adolescentis strain: DSM20083”, “7” for “6”; parameters: dose 5 uM, timepoint 0, 0.75, 1.5, 3, 6, 9, 12 hours; settings: 5 µM
[19] = as §1, with “the gut metagenome community of A-05 with ENA study accession number: PRJEB31790” for “Bifidobacterium adolescentis strain: DSM20083”, “7” for “6”; parameters: dose 5 uM, timepoint 0, 0.75, 1.5, 3, 6, 9, 12 hours; settings: 5 µM
[20] = as §1, with “the gut metagenome community of A-07 with ENA study accession number: PRJEB31790” for “Bifidobacterium adolescentis strain: DSM20083”, “7” for “6”; parameters: dose 5 uM, timepoint 0, 0.75, 1.5, 3, 6, 9, 12 hours; settings: 5 µM
[21] = as §1, with “the gut metagenome community of P-01 with ENA study accession number: PRJEB31790” for “Bifidobacterium adolescentis strain: DSM20083”, “7” for “6”; parameters: dose 5 uM, timepoint 0, 0.75, 1.5, 3, 6, 9, 12 hours; settings: 5 µM
[22] = as §1, with “the gut metagenome community of P-02 with ENA study accession number: PRJEB31790” for “Bifidobacterium adolescentis strain: DSM20083”, “7” for “6”; parameters: dose 5 uM, timepoint 0, 0.75, 1.5, 3, 6, 9, 12 hours; settings: 5 µM
[23] = as §1, with “the gut metagenome community of P-04 with ENA study accession number: PRJEB31790” for “Bifidobacterium adolescentis strain: DSM20083”, “7” for “6”; parameters: dose 5 uM, timepoint 0, 0.75, 1.5, 3, 6, 9, 12 hours; settings: 5 µM
[24] = as §1, with “the gut metagenome community of T-02 with ENA study accession number: PRJEB31790” for “Bifidobacterium adolescentis strain: DSM20083”, “7” for “6”; parameters: dose 5 uM, timepoint 0, 0.75, 1.5, 3, 6, 9, 12 hours; settings: 5 µM
[25] = as §1, with “the gut metagenome community of T-03 with ENA study accession number: PRJEB31790” for “Bifidobacterium adolescentis strain: DSM20083”, “7” for “6”; parameters: dose 5 uM, timepoint 0, 0.75, 1.5, 3, 6, 9, 12 hours; settings: 5 µM
[26] = as §2, with “the gut metagenome community of A-01 with ENA study accession number: PRJEB31790” for “Actinomyces graevenitzii strain: DSM15540”, “7” for “6”; parameters: dose 5 uM, timepoint 0, 0.75, 1.5, 3, 6, 9, 12 hours; settings: 5 µM
[27] = as §2, with “the gut metagenome community of A-05 with ENA study accession number: PRJEB31790” for “Actinomyces graevenitzii strain: DSM15540”, “7” for “6”; parameters: dose 5 uM, timepoint 0, 0.75, 1.5, 3, 6, 9, 12 hours; settings: 5 µM
[28] = as §2, with “the gut metagenome community of A-06 with ENA study accession number: PRJEB31790” for “Actinomyces graevenitzii strain: DSM15540”, “7” for “6”; parameters: dose 5 uM, timepoint 0, 0.75, 1.5, 3, 6, 9, 12 hours; settings: 5 µM
[29] = as §2, with “the gut metagenome community of A-08 with ENA study accession number: PRJEB31790” for “Actinomyces graevenitzii strain: DSM15540”, “7” for “6”; parameters: dose 5 uM, timepoint 0, 0.75, 1.5, 3, 6, 9, 12 hours; settings: 5 µM
[30] = as §2, with “the gut metagenome community of T-02 with ENA study accession number: PRJEB31790” for “Actinomyces graevenitzii strain: DSM15540”, “7” for “6”; parameters: dose 5 uM, timepoint 0, 0.75, 1.5, 3, 6, 9, 12 hours; settings: 5 µM
[31] = as §2, with “the gut metagenome community of T-05 with ENA study accession number: PRJEB31790” for “Actinomyces graevenitzii strain: DSM15540”, “7” for “6”; parameters: dose 5 uM, timepoint 0, 0.75, 1.5, 3, 6, 9, 12 hours; settings: 5 µM

Row | Compound | Bacterial Biotransformation [1] | Bacterial Biotransformation [2] | Bacterial Biotransformation [3] | Bacterial Biotransformation [4] | Bacterial Biotransformation [5] | Bacterial Biotransformation [6] | Bacterial Biotransformation [7] | Bacterial Biotransformation [8] | Bacterial Biotransformation [9] | Bacterial Biotransformation [10] | Bacterial Biotransformation [11] | Bacterial Biotransformation [12] | Bacterial Biotransformation [13] | Bacterial Biotransformation [14] | Bacterial Biotransformation [15] | Bacterial Biotransformation [16] | Bacterial Biotransformation [17] | Bacterial Biotransformation [18] | Bacterial Biotransformation [19] | Bacterial Biotransformation [20] | also measured
1 | CN(Cc1cnc2nc(N)nc(N)c2n1)c1ccc(C(=O)N[C@@H](CCC(=O)O)C(=O)O)cc1 [METHOTREXATE] | Compound NOT metabolized | Compound NOT metabolized | Compound NOT metabolized | Compound NOT metabolized | Compound NOT metabolized | Compound NOT metabolized | Compound NOT metabolized | Compound NOT metabolized | Compound NOT metabolized | Compound NOT metabolized | Compound NOT metabolized | Compound NOT metabolized | Compound NOT metabolized | Compound NOT metabolized | Compound NOT metabolized | Compound NOT metabolized | Compound NOT metabolized | Compound metabolized | Compound NOT metabolized | Compound metabolized | Bacterial Biotransformation [21]: Compound NOT metabolized; Bacterial Biotransformation [22]: Compound metabolized; Bacterial Biotransformation [23]: Compound NOT metabolized; Bacterial Biotransformation [24]: Compound metabolized; Bacterial Biotransformation [25]: Compound NOT metabolized; Bacterial Biotransformation [26]: Compound NOT metabolized; Bacterial Biotransformation [27]: Compound NOT metabolized; Bacterial Biotransformation [28]: Compound metabolized; Bacterial Biotransformation [29]: Compound metabolized; Bacterial Biotransformation [30]: Compound metabolized; Bacterial Biotransformation [31]: Compound metabolized
2 | CCOC(=O)C1=C(COCCN)NC(C)=C(C(=O)OC)C1c1ccccc1Cl (stereo not drawn) [AMLODIPINE] | Compound NOT metabolized | Compound NOT metabolized | Compound NOT metabolized | Compound NOT metabolized | Compound NOT metabolized | Compound NOT metabolized | Compound NOT metabolized | Compound NOT metabolized | Compound NOT metabolized | Compound NOT metabolized | Compound NOT metabolized | Compound NOT metabolized | Compound NOT metabolized | Compound metabolized | Compound NOT metabolized | Compound NOT metabolized | Compound NOT metabolized | Compound metabolized | Compound NOT metabolized | Compound NOT metabolized | Bacterial Biotransformation [21]: Compound NOT metabolized; Bacterial Biotransformation [22]: Compound NOT metabolized; Bacterial Biotransformation [23]: Compound NOT metabolized; Bacterial Biotransformation [24]: Compound NOT metabolized; Bacterial Biotransformation [25]: Compound NOT metabolized; Bacterial Biotransformation [26]: Compound NOT metabolized; Bacterial Biotransformation [27]: Compound NOT metabolized; Bacterial Biotransformation [28]: Compound NOT metabolized; Bacterial Biotransformation [29]: Compound NOT metabolized; Bacterial Biotransformation [30]: Compound NOT metabolized; Bacterial Biotransformation [31]: Compound NOT metabolized
3 | Cn1cnc([N+](=O)[O-])c1Sc1ncnc2nc[nH]c12 [AZATHIOPRINE] | Compound metabolized | Compound NOT metabolized | Compound metabolized | Compound NOT metabolized | Compound NOT metabolized | Compound metabolized | Compound NOT metabolized | Compound metabolized | Compound metabolized | Compound metabolized | Compound NOT metabolized | Compound NOT metabolized | Compound metabolized | Compound metabolized | Compound NOT metabolized | Compound metabolized | Compound NOT metabolized | Compound metabolized | Compound metabolized | Compound metabolized | Bacterial Biotransformation [21]: Compound metabolized; Bacterial Biotransformation [22]: Compound NOT metabolized; Bacterial Biotransformation [23]: Compound NOT metabolized; Bacterial Biotransformation [24]: Compound NOT metabolized; Bacterial Biotransformation [25]: Compound NOT metabolized; Bacterial Biotransformation [26]: Compound NOT metabolized; Bacterial Biotransformation [27]: Compound metabolized; Bacterial Biotransformation [28]: Compound metabolized; Bacterial Biotransformation [29]: Compound metabolized; Bacterial Biotransformation [30]: Compound NOT metabolized; Bacterial Biotransformation [31]: Compound NOT metabolized
